Data on 2 compounds can be found in patent US5159102A, “7-thiaprostaglandins E, and process for producing same” (Teijin Limited, priority 1990, dated 1992).

Converted amounts (≈) assume the structure as drawn.

As usually defined, the ED50 is the dose at which the effect has come halfway, by size or by number of responders. A low value points to greater potency. For orientation: IC50 means the concentration that gives 50% inhibition.

Test [1] deals with ulcer formation induced by indomethacin (stomach). The experiment in a line: Inhibiting effect on ulcer formation induced by indomethacin (antiulcerative effect). In kind it is in vivo. As to conditions: Rattus norvegicus, po; P.O., Wister male rats; 30 min before indomethacin 20 mg/kg p.o.; ulcer length 5 h after. As to the method:
The inhibiting effect on ulcer formation induced by indomethacin was examined by using rats. Wister male rats (7 weeks old and body weight of 220 g) were abstained from food for 24 hours except giving water and then subjected to experiments.
The sample compounds to be tested were dissolved in a phosphoric acid buffer (pH 7.4) containing 0.9% NaCl and the solution was orally administered to the rats. 30 minutes after the administration, indomethacin was orally administered to the rats at a dose of 20 mg/kg. 5 hours after the administration of the indomethacin, the rats were killed and the ulcer formation in the stomach was examined by determining the length of the ulcer formation portion under a stereomicroscope. From this measurement, the inhibition of ulcer formation by the sample compounds were calculated to determine the ED values.

The test system of test [2] is blood platelet aggregation (ADP, PRP). Description: In vitro blood platelet aggregation inhibition effect. In kind it is cell-based, native Japanese white male domestic rabbits. To be noted: Oryctolagus cuniculus, rabbit PRP, 10 μM ADP, 37° C., read-out: Anti-platelet aggregation effect IC50. As to the method: The in vitro blood platelet aggregation inhibition effect of the sample compounds to be tested was examined by using rabbits. That is, blood was collected from the ear vein of native Japanese white male domestic rabbits weighing 2.5 to 3.5 kg. The collected blood was 9 parts by volume per 1 part by volume of a 3.8% sodium citrate solution. The blood was centrifuged at 1000 r.p.m. for 10 minutes. The upper layer portion was separated as PRP (rich in platelet blood plasma). The lower layer portion was further centrifuged at 2800 r.p.m. for 10 minutes to divide it into two layers. The upper layer portion was separated as PPP (poor in platelet blood plasma). The number of the platelet was diluted with PPP to […]. After the adjustment, 25 μl of the sample compound was added to 250 μl of PRP, which was preincubated at a temperature of 37° C. for 2 minutes. Thereafter, 10 μM of ADP (final) was added to the preincubated PRP to record the variation of the transmittance by means of aggregometer. […]
When the activity of the sample compounds was determined, the ethanol solution was diluted with a phosphoric acid buffer (PH 7.4). The ethanol solution diluted with the buffer was left to stand at a temperature of 0° C. for 4 hours, after which the activity of the sample compounds was determined in the same manner.
The platelet aggregation inhibition was calculated by the following formula: […]

In test [1], `CCCCC(O)C/C=C/[C@H]1[C@H](O)CC(=O)[C@@H]1SCCCCCC(=O)OC` (stereo partly shown) returned an ED50 of 0.01 mg/kg. For the same compound, the IC50 in test [2] turned out to be 17 µg/mL (≈ 44 µM).
In the case of `CCCCCC(O)/C=C/C1CCC(=O)C1SCCCCCC(=O)OC` (stereo not shown), the ED50 in test [1] turned out to be 0.3 mg/kg. Also, the IC50 in test [2] was greater than 100 µg/mL.
